Data set [1] is described as follows: Complex stability measured by relaxivity (T1). Type of data set: physicochemical.
The target in data set [2] is T1, β-gal (Escherichia coli, UniProt P00722). To be noted: dark to bright.
Text: The acetate arm is attached to an amine present in the linker between the macrocycle and the galactopyranose substrate.
A short description of data set [3]: Relaxivity (1.4 T) in MOPS and MOPS/CO3^2−. Type of data set: physicochemical. The protocol: While measurements of q indicate how well an agent can restrict water access to the GdIII center, the most important property for a bio-activated contrast agent is the change in relaxivity upon enzymatic cleavage (r1). To evaluate the signal change in the presence of CO32−, relaxivities of the intermolecular activated agents were measured in two different buffer conditions, the non-coordinating buffer MOPS and MOPS/CO32−.
T1 relaxation times were obtained for 5a-c (FIG. 13), and complexes 10a-d (FIG. 14), and 11 at 37° C. at 60 MHz (1.4 T) on a Bruker mq60 minispec spectrometer (Billerica, MA). Three 1 mM solutions of each complex were prepared in four different buffer conditions 1) 10 mm 3-(N-morpholino)propanesulfonic acid (MOPS), 100 mm NaCl, pH 7.4, 2) 10 mm MOPS, 24 mm NaHCO3, 100 mm NaCl, pH 7.4, 3) Dulbecco's Phosphate Buffer (DPBS) pH 7.3 Life Technologies, and 4) b-galactosidase enzyme assay buffer, 200 mm sodium phosphate, 100 mm bmercaptoethanol, 2 mm MgCl2, pH 7.3 (FIG. 15). Three sets of five serial dilutions (about 1 mm, 0.5 mm, 0.25 mm, 0.125 mm and 0.0625 mm) were prepared for each complex. T1 relaxation rates were measured using an inversion recovery pule sequence (t1_ir_mb) with a 10 ms first pulse separation, recycle delay and final pulse separation ≥5 T1. T1 relaxation rates were plotted as a function of GdIII concentrations as determined by ICP-MS, r1/r2 was obtained from linear fit of concentration vs. T1 as described in Equation (1).

Data set [4] concerns the target T1, β-gal. The protocol:
MR images were acquired on a Bruker Pharmscan 7 T imaging spectrometer fitted with shielded gradient coils at 25° C. Image analysis was carried out using Paravision 5.0 p13 software (Bruker, Billerica, MA, USA) with monoexponential curve-fitting of image intensities of selected regions of interest (ROIs) for each axial slice. […] Exact Gd(III) concentration was verified by ICP-MS. Either 10 μL of enzyme stock solution (50% enzyme assay buffer, 50% glycerol, at 521 U/mL β-gal) or 10 μL of a 50% enzyme assay buffer/50% glycerol solution (used as a control) were added to a 190 μL aliquot of each complex. After this addition, the final concentration of each complex was 475 μM, with 26.1 U/mL of β-gal. The solutions were incubated at 37° C. for 24 hours, then aliquoted to 5, ¾″ flame-sealed Pasteur pipets. The bottom sections of the flame-sealed pipets were then scored with a glass scribe, broken into small capillaries, and imaged using a RF RES 300 1H 089/023 quadrature transmit receive 23 mm volume coil (Bruker BioSpin, Billerica, MA, USA). T1 relaxation times were measured using a rapid-acquisition rapid-echo RARE-VTR T1-map pulse sequence with the following imaging parameters: TE (11.0 ms), TR (500.0 ms), field of view (FOV)=25×25 mm2, matrix size (MTX)=256×256, number of axial slices=5, slice thickness (SI)=1.0 mm, and averages (NEX)=3, and total scan time was 2:36:57. T2 values were measured using a multislice multiecho (MSME) T2-map pulse sequence, with static TR (5000 ms) and 32 fitted echoes in 11 ms intervals (11, 22, . . . , 352 ms). Imaging parameters were as follows: FOV=25×25 mm2, MTX=256×256, number of axial slices=4, SI=1.0 mm, NEX=3, and a total scan time=48 min. T1 images and times can be found in FIG. 14 and T2 maps and times can be found in FIG. 18.

In data set [5] the test system is β-gal enzyme (lacZ). To be noted: for MR signal enhancement in lacZ-expressing mice, 1 h post injection: 9.4 T T1 weighted FLASH. On the procedure:
In vivo MR Imaging (9.4 T) Hemizygous transgenic mice (n=2) constitutively expressing the lacZ gene that encodes the β-gal enzyme (strain ROSA26-lacZ) were purchased from The Jackson Laboratory (Bar Harbor, ME). A non-transgenic littermate was used as a control. […] Mice were imaged with MRI at baseline, and 1, 4, and 24 hours post injection.
MRI was performed on a 9.4T Bruker Biospec MRI system with a 30 cm bore, a 12 cm gradient insert, and an Autopac automated sample positioning system (Bruker Biospin Inc, Billerica, MA). Animals were anesthetized in an induction chamber with 3% isoflurane and transferred to a dedicated imaging bed with isoflurane delivered via nosecone at 1-2%. Respiratory signals were monitored using an MR-compatible physiologic monitoring system (SA Instruments, Stonybrook, NY) and a warm water circulating system was used to maintain body temperature. Animals were placed in the prone position and a quadrature radiofrequency coil with inner diameter 40 mm was mounted on the bed. Mice were imaged using a FLASH gradient echo sequence using the following parameters: TR/TE/α=100 ms/2.2 ms/45°, MTX=192×192, FOV 4×4 cm, 9 slices of 1 mm thick, 0.3 mm slice gap, and 1 signal average.

The nature of data set [6]: Terbium(III) luminescence: determination of q. Type of data set: physicochemical. To be noted: 10a′-d′, Horrock's equation; MOPS/CO3^2− buffer pH 7.4. The protocol:
The q number in the absence and presence of CO32− was determined using TbIII analogues (5a′, 5b′, 5c′, and 11′). Given the similarities in chemistry amongst the lanthanides, TbIII luminescence is a convenient and established method for determining the coordination environment in corresponding GdIII chelates. The narrow […] emission at 543 nm and the relatively long lived 0.4 ms excited state lifetime for Tb(H2O)x facilitates accurate assessment of the inner-coordination sphere, differentiating between coordination of OH, OD, NH, and ND oscillators. 38 Luminescent decay curves were fit to the empirically derived Horrock's equation (Eq. 2). It was expected that the ortho position would have the lowest q in the presence of CO32−, creating a “dark” state with the lowest relaxivity.
The number of water molecules directly coordinated to the lanthanide center (q), was determined for each of the TbIII analogues 5a′-c′ (see Table 1), 10a′-d′ (Table 2), and 11′ in MilliQ water and MOPS/carbonate buffer (10 mm MOPS, 24 mm NaHCO3, pH 7.4).
The monoexponential fluorescence decay of an ≈1 mm solution of each complex was determined using a Hitachi F4500 fluorometer (Schaumburg, IL). An excitation wavelength of 308 nm and an emission wavelength of […] were used, and 25 scans were acquired and averaged for each solution. The averaged data was fit with a monoexponential decay function, and the time constant (t) for each solution was determined in triplicate. The fluorescence decay curves of the complexes were measured in both H2O and D2O, and in both buffer and deuterated buffer, obtained by lyophilizing and re-suspending the buffer in D2O three times (FIG. 17A-E). The q values were calculated using the empirically derived Horrock's equation for Tb(III) (Eq. 2): […]

Setting [7] is: IP 200 microliters of 40 mM, 9.4 T.

Read-outs that look alike come from different tables or passages of the source.

These results are taken from patent US12508328B2, “Bio-activated reporters to visualize, in real time, specific gene therapy products” (Northwestern University, priority 2019, dated 2025).

T1 sequence (P00722 2-1024): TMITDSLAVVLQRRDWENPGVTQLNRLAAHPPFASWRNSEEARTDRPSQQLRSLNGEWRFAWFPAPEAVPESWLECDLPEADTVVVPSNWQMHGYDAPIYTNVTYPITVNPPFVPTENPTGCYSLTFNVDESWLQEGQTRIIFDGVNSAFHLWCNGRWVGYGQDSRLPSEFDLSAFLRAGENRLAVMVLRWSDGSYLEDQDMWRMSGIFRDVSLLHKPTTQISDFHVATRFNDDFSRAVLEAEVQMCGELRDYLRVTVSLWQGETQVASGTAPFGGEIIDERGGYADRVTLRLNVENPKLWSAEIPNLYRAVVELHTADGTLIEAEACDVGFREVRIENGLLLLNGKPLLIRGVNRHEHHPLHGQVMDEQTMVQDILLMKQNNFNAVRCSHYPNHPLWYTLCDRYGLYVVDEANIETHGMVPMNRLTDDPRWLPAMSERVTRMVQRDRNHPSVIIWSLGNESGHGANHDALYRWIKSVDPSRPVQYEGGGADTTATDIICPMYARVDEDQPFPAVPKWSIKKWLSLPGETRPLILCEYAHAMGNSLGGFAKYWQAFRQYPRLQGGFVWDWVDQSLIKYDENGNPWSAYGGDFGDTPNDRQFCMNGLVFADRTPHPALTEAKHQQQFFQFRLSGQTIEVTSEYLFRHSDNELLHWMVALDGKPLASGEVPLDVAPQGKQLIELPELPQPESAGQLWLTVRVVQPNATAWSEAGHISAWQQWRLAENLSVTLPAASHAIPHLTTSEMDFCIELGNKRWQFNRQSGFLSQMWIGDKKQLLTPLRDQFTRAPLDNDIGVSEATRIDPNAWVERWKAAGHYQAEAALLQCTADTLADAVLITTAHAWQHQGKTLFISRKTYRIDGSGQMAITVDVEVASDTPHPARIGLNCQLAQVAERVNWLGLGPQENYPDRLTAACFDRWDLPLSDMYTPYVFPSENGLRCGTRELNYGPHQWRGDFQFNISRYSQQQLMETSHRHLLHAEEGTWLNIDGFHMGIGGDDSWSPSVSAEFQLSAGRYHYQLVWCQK

In the case of `CCOC(=O)CCCCCNc1cc(COC(=O)NCCN2CCN(CC(=O)[O-])CCN(CC(=O)[O-])CCN(CC(=O)[O-])CC2)ccc1O[C@@H]1O[C@H](CO)[C@H](O)[C@H](O)[C@H]1O.[Gd+3]` [10c, Gadolinium(III)-1-(4-(2-(1-(4,7,10-triscarboxymethyl-(1,4,7,10tetraazacyclododecyl)))ethylcarbamoyloxymethyl)-2-((6-ethoxy-6-oxohexyl)amino)phenyl)-β-D-galactopyranose], the “change in T1 over time (stability)” value in data set [1] (1 mM in enzyme buffer pH 7.3, over 140 hours) is reported as “No significant change in T1”. Also, the “change in T1 over time (stability) in cell culture media” value in data set [1] (cell culture media, over 140 hours) is on record as “No significant change in T1”. The “change in relaxivity when exposed to β-gal (post enzyme cleavage)” value in data set [2] is 90%. Besides, the “change in signal in the presence of CO3^2−” value in data set [3] (10a-d, MOPS/CO3^2−) is reported as “highest overall change in signal”. For the same compound, the “Δr1 relative to the cleaved control product 11” value in data set [3] (intramolecular series 10a-d, 37° C.) is listed as 20%. In data set [4] (7 T solution phantoms, 24 h incubation), the “T1 signal in the presence of β-gal compared with cleaved agent 11” value is “approximately the same”. The change in relaxivity entry in data set [4] (at both 1.4 and 7 T) is reported as “positive”. The “MR signal enhancement in lacZ-expressing mice, 4 hrs post injection” value in data set [5] (setting [7]) is reported as “signal enhancement was present but at a reduced level”. The “MR signal enhancement in non-transgenic control mice” value in data set [5] (setting [7]) is “No signal enhancement was observed”; in data set [5] (IP 200 microliters of 40 mM, 9.4 T, listed as complex 3) it was “No signal enhancement was observed”; in data set [5] (IP 200 microliters of 40 mM, 9.4 T, listed as β-galactosidase responsive agent), “minimal”. Moreover, the “MR signal enhancement in lacZ-expressing mice, 1 h post injection” value was “Global signal enhancement was observed” in data set [5] (IP 200 microliters of 40 mM); “Global signal enhancement was observed” in data set [5] (IP 200 microliters of 40 mM, listed as complex 3); “Signal enhancement was noted in the liver and kidneys” in data set [5] (IP 200 microliters of 40 mM, listed as β-galactosidase responsive agent). For the same compound, the “time for MR signal to return to baseline” value in data set [5] (LacZ mice, IP injection) was no more than 24 h. For the same compound, the route of clearance result in data set [5] (bladder very bright at 4 hour time point in one LacZ mouse) is on record as “cleared renally”. The “q (buffer)” value in data set [6] was determined as 0.1.
